Results: the kinase profiling compilation of Christmann-Franck et al. (2016)

Tests used:
Assay in all cases: KINOMEscan competition binding
Conditions in all cases: compound 10.0 µM
[1] = molecular target: PRKD2 (human) (UniProt Q9BZL6)
[2] = molecular target: CHUK (human) (UniProt O15111)
[3] = molecular target: TNK1 (human) (UniProt Q13470)
[4] = system: PIK3CA (human), P42336 [I800L]
[5] = molecular target: TYRO3 (human) (UniProt Q06418)
[6] = molecular target: PRKD3 (human) (UniProt O94806)
[7] = molecular target: PRKG2 (human) (UniProt Q13237)
[8] = system: EGFR (human), P00533 [T790M]
[9] = molecular target: AXL (human) (UniProt P30530)
[10] = system: EGFR (human), P00533 [L858R]
[11] = molecular target: LATS1 (human) (UniProt O95835)
[12] = system: RET (human), P07949 [M918T]
[13] = molecular target: NTRK2 (human) (UniProt Q16620)
[14] = molecular target: MAP3K9 (human) (UniProt P80192)
MAP3K9 (human), sequence (P80192 whole entry, looked up): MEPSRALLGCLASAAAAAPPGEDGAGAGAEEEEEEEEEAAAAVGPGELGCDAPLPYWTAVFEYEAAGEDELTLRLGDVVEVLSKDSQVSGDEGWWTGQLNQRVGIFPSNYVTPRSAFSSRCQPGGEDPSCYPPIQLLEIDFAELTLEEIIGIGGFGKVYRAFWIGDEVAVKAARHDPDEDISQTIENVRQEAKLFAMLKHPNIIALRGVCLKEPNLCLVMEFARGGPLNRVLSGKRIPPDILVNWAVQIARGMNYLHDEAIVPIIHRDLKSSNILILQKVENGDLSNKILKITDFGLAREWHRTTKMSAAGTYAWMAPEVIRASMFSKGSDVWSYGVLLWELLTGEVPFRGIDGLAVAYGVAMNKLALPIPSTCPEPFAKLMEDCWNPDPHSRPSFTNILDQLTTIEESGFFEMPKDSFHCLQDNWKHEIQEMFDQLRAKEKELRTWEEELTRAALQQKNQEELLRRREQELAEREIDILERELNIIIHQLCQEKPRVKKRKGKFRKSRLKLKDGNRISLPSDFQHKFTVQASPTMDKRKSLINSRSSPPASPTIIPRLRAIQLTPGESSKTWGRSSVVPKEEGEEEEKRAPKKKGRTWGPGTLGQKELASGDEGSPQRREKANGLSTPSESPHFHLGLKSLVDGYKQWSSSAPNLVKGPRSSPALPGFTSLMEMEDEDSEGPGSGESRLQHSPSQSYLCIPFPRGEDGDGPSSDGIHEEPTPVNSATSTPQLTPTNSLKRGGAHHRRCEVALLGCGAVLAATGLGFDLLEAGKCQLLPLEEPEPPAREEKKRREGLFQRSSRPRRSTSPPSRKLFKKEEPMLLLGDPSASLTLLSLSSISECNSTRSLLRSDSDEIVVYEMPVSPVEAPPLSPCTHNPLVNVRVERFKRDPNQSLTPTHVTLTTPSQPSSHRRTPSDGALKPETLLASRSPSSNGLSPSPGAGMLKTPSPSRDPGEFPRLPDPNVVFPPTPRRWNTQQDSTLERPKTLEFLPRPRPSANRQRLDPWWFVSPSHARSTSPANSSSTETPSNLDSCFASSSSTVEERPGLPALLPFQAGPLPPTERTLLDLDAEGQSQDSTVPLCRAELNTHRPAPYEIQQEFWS

[15] = molecular target: TESK1 (human) (UniProt Q15569)
[16] = molecular target: SRPK3 (human) (UniProt Q9UPE1)
[17] = molecular target: AAK1 (human) (UniProt Q2M2I8)
AAK1 (human), sequence (Q2M2I8 whole entry, looked up): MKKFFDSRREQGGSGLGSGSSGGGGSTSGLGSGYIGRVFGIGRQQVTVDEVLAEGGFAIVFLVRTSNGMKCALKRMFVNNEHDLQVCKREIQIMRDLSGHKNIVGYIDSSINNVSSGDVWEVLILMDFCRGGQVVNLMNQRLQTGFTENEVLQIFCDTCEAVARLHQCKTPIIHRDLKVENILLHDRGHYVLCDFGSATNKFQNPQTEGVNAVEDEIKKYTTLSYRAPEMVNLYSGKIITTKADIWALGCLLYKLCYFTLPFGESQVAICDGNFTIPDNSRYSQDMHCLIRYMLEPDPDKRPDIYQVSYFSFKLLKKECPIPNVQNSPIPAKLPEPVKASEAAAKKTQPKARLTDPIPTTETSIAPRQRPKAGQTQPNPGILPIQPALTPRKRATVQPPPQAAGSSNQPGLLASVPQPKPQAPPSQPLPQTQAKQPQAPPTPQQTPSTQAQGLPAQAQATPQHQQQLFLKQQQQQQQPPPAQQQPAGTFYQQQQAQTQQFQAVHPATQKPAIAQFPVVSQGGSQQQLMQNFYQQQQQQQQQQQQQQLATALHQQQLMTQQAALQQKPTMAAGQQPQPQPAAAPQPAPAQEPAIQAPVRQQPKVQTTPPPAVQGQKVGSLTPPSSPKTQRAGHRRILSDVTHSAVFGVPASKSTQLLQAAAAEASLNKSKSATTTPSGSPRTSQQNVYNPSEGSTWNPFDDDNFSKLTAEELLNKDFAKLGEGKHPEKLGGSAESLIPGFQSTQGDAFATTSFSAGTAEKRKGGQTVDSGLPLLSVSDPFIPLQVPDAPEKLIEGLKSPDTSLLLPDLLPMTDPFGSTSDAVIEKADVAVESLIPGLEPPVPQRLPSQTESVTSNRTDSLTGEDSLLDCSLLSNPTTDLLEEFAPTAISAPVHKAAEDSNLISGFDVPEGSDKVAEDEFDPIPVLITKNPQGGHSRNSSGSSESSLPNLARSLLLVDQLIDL

[18] = molecular target: ACVRL1 (human) (UniProt P37023)
[19] = molecular target: IRAK3 (human) (UniProt Q9Y616)
IRAK3 (human), sequence (Q9Y616 whole entry, looked up): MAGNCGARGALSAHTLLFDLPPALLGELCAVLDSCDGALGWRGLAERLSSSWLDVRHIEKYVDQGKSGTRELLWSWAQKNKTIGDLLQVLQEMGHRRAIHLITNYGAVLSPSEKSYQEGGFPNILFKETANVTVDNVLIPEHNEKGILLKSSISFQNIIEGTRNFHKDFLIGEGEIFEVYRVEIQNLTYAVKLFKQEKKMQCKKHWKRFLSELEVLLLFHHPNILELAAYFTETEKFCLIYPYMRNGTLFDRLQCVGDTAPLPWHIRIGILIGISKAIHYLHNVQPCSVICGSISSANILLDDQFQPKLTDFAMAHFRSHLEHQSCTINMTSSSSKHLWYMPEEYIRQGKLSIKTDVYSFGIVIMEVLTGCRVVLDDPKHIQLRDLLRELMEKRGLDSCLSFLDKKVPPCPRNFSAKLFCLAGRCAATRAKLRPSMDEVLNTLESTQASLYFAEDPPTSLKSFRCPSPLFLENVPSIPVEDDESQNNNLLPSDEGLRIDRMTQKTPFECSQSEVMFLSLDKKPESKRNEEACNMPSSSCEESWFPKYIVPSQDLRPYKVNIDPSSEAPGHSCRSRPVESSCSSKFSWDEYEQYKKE

[20] = molecular target: EPHB2 (human) (UniProt P29323)
[21] = molecular target: RIOK3 (human) (UniProt O14730)
[22] = molecular target: FES (human) (UniProt P07332)
[23] = molecular target: PIK3C2G (human) (UniProt O75747)
PIK3C2G (human), sequence (O75747 whole entry, looked up): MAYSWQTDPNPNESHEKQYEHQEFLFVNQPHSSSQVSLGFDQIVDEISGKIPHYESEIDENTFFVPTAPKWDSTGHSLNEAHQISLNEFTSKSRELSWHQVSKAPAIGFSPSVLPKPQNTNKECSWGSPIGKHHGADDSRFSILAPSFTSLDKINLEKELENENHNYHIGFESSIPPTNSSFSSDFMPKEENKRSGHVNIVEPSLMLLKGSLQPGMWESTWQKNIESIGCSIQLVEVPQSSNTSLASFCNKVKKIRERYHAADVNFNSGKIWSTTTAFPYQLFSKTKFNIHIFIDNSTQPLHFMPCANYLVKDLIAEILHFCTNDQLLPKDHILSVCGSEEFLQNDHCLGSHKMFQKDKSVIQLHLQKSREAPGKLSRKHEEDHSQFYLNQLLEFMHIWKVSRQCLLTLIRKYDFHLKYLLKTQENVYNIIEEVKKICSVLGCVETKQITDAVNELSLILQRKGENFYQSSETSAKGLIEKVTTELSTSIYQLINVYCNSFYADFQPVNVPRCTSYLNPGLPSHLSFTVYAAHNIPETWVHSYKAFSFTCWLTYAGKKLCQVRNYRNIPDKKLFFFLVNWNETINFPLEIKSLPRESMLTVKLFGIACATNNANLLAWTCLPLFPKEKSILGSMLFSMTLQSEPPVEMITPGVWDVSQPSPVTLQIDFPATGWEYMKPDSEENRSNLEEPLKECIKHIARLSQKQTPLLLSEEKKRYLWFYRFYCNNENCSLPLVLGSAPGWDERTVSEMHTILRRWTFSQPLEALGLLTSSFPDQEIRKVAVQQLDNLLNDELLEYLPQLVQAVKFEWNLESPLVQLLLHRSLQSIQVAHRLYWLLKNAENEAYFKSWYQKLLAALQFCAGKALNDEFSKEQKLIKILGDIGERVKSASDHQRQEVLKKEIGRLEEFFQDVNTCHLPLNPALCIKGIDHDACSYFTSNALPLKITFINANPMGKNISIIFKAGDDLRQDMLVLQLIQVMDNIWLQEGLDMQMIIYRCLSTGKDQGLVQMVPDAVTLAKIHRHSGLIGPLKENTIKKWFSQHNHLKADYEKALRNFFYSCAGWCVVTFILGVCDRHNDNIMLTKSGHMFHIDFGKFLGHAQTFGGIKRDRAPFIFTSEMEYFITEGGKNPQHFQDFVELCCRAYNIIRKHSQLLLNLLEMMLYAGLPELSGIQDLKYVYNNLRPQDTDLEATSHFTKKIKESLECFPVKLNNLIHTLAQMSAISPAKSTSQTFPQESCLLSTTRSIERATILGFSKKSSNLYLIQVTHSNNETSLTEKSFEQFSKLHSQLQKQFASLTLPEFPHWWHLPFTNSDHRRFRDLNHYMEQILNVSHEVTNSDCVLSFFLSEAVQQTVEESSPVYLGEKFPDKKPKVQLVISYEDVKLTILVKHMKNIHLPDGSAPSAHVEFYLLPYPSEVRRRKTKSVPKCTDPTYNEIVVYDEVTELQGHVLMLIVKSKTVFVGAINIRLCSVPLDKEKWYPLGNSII

[24] = molecular target: CIT (human) (UniProt O14578)
[25] = molecular target: MAP3K12 (human) (UniProt Q12852)
[26] = molecular target: SRMS (human) (UniProt Q9H3Y6)
[27] = molecular target: PRKCI (human) (UniProt P41743)
[28] = molecular target: HIPK4 (human) (UniProt Q8NE63)
[29] = molecular target: PIP5K1C (human) (UniProt O60331)
[30] = molecular target: MAPK8 (human) (UniProt P45983)
[31] = molecular target: SRC (human) (UniProt P12931)
[32] = molecular target: DCLK3 (human) (UniProt Q9C098)
[33] = molecular target: TGFBR1 (human) (UniProt P36897)
[34] = molecular target: YSK4 (human) (UniProt Q56UN5)
[35] = molecular target: STK24 (human) (UniProt Q9Y6E0)
[36] = molecular target: LIMK2 (human) (UniProt P53671)
[37] = molecular target: EPHA3 (human) (UniProt P29320)
[38] = molecular target: CAMK1G (human) (UniProt Q96NX5)
[39] = molecular target: TNNI3K (human) (UniProt Q59H18)
[40] = system: MET (human), P08581 [M1250T]
[41] = system: MET (human), P08581 [Y1235D]

TNK1 (human), sequence (Q13470 whole entry, looked up): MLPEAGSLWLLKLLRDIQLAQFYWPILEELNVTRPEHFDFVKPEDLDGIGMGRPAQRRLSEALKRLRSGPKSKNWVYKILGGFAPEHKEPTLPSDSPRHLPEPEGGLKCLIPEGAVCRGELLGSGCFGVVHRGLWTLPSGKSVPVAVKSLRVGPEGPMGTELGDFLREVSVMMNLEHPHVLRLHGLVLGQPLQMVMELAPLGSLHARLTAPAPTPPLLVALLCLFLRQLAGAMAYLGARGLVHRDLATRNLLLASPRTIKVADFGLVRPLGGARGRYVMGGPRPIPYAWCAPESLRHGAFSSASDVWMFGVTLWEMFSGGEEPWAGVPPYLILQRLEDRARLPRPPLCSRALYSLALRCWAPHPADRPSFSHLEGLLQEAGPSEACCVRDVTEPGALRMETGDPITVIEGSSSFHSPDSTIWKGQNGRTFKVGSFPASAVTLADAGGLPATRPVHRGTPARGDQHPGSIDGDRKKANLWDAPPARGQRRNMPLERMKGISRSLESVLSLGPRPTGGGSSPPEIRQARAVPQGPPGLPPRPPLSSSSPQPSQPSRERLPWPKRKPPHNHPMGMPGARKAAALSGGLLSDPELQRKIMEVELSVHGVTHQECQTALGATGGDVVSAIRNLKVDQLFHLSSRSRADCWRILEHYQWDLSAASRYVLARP

## COC(=O)Nc1ccc(-c2nc(N3CCOCC3)c3cnn(C4CCN(C(=O)OC)CC4)c3n2)cc1
[1]
  kinase still bound, per cent of control: 100%
[2]
  kinase still bound, per cent of control: 63%
[3]
  kinase still bound, per cent of control: 100%
[4]
  kinase still bound, per cent of control: 0.4%
[5]
  kinase still bound, per cent of control: 100%
[6]
  kinase still bound, per cent of control: 100%
[7]
  kinase still bound, per cent of control: 86%
[8]
  kinase still bound, per cent of control: 100%
[9]
  kinase still bound, per cent of control: 100%
[10]
  kinase still bound, per cent of control: 100%
[11]
  kinase still bound, per cent of control: 100%
[12]
  kinase still bound, per cent of control: 87%
[13]
  kinase still bound, per cent of control: 100%
[14]
  kinase still bound, per cent of control: 100%
[15]
  kinase still bound, per cent of control: 91%
[16]
  kinase still bound, per cent of control: 100%
[17]
  kinase still bound, per cent of control: 86%
[18]
  kinase still bound, per cent of control: 100%
[19]
  kinase still bound, per cent of control: 79%
[20]
  kinase still bound, per cent of control: 100%
[21]
  kinase still bound, per cent of control: 100%
[22]
  kinase still bound, per cent of control: 100%
[23]
  kinase still bound, per cent of control: 24%
[24]
  kinase still bound, per cent of control: 98%
[25]
  per cent of control: 97%
[26]
  kinase still bound, per cent of control: 78%
[27]
  kinase still bound, per cent of control: 100%
[28]
  kinase still bound, per cent of control: 97%
[29]
  kinase still bound, per cent of control: 100%
[30]
  kinase still bound, per cent of control: 100%
[31]
  kinase still bound, per cent of control: 95%
[32]
  kinase still bound, per cent of control: 92%
[33]
  kinase still bound, per cent of control: 100%
[34]
  kinase still bound, per cent of control: 75%
[35]
  kinase still bound, per cent of control: 100%
[36]
  kinase still bound, per cent of control: 94%
[37]
  kinase still bound, per cent of control: 84%
[38]
  kinase still bound, per cent of control: 92%
[39]
  kinase still bound, per cent of control: 100%

## CC(C)n1nc(-c2cc3cc(O)ccc3[nH]2)c2c(N)ncnc21
[1]
  kinase still bound, per cent of control: 100%
[2]
  kinase still bound, per cent of control: 41%
[3]
  kinase still bound, per cent of control: 34%
[5]
  kinase still bound, per cent of control: 77%
[6]
  kinase still bound, per cent of control: 94%
[9]
  kinase still bound, per cent of control: 21%
[11]
  kinase still bound, per cent of control: 55%
[12]
  kinase still bound, per cent of control: 0%
[14]
  kinase still bound, per cent of control: 32%
[15]
  kinase still bound, per cent of control: 17%
[16]
  kinase still bound, per cent of control: 83%
[40]
  kinase still bound, per cent of control: 100%
[17]
  kinase still bound, per cent of control: 31%
[18]
  kinase still bound, per cent of control: 6.7%
[19]
  kinase still bound, per cent of control: 12%
[20]
  kinase still bound, per cent of control: 32%
[21]
  kinase still bound, per cent of control: 83%
[22]
  kinase still bound, per cent of control: 100%
[41]
  kinase still bound, per cent of control: 88%
[23]
  kinase still bound, per cent of control: 3.4%
[24]
  kinase still bound, per cent of control: 66%
[25]
  per cent of control: 84%
[26]
  kinase still bound, per cent of control: 61%
[27]
  kinase still bound, per cent of control: 52%
[28]
  kinase still bound, per cent of control: 27%
[29]
  kinase still bound, per cent of control: 9.8%
[30]
  kinase still bound, per cent of control: 89%
[32]
  kinase still bound, per cent of control: 10%
[33]
  kinase still bound, per cent of control: 1.1%
[34]
  kinase still bound, per cent of control: 0%
[35]
  kinase still bound, per cent of control: 67%
[36]
  kinase still bound, per cent of control: 77%
[37]
  kinase still bound, per cent of control: 1.5%
[38]
  kinase still bound, per cent of control: 77%
[39]
  kinase still bound, per cent of control: 14%

## CCC(=O)N1CCN(c2ccc(-n3c(=O)ccc4cnc5ccc(-c6cnc7ccccc7c6)cc5c43)cc2C(F)(F)F)CC1
[1]
  kinase still bound, per cent of control: 100%
[2]
  kinase still bound, per cent of control: 41%
[3]
  kinase still bound, per cent of control: 6.8%
[4]
  kinase still bound, per cent of control: 0%
[5]
  kinase still bound, per cent of control: 31%
[6]
  kinase still bound, per cent of control: 100%
[7]
  kinase still bound, per cent of control: 78%
[8]
  kinase still bound, per cent of control: 100%
[9]
  kinase still bound, per cent of control: 46%
[10]
  kinase still bound, per cent of control: 100%
[11]
  kinase still bound, per cent of control: 100%
[12]
  kinase still bound, per cent of control: 51%
[13]
  kinase still bound, per cent of control: 81%
[14]
  kinase still bound, per cent of control: 84%
[15]
  kinase still bound, per cent of control: 58%
[40]
  kinase still bound, per cent of control: 79%
[17]
  kinase still bound, per cent of control: 75%
[18]
  kinase still bound, per cent of control: 83%
[19]
  kinase still bound, per cent of control: 27%
[20]
  kinase still bound, per cent of control: 100%
[21]
  kinase still bound, per cent of control: 90%
[22]
  kinase still bound, per cent of control: 41%
[41]
  kinase still bound, per cent of control: 100%
[23]
  kinase still bound, per cent of control: 11%
[24]
  kinase still bound, per cent of control: 59%
[25]
  per cent of control: 100%
[26]
  kinase still bound, per cent of control: 92%
[27]
  kinase still bound, per cent of control: 85%
[28]
  kinase still bound, per cent of control: 4.6%
[29]
  kinase still bound, per cent of control: 80%
[30]
  kinase still bound, per cent of control: 22%
[31]
  kinase still bound, per cent of control: 95%
[32]
  kinase still bound, per cent of control: 97%
[33]
  kinase still bound, per cent of control: 70%
[34]
  kinase still bound, per cent of control: 38%
[35]
  kinase still bound, per cent of control: 100%
[36]
  kinase still bound, per cent of control: 4.8%
[37]
  kinase still bound, per cent of control: 70%
[38]
  kinase still bound, per cent of control: 74%
[39]
  kinase still bound, per cent of control: 66%

## COc1ccc(-c2ccc3c(N4CCOCC4)nc(N4C[C@@H](C)O[C@@H](C)C4)nc3n2)cc1CO
[1]
  kinase still bound, per cent of control: 96%
[2]
  kinase still bound, per cent of control: 72%
[3]
  kinase still bound, per cent of control: 100%
[4]
  kinase still bound, per cent of control: 0%
[5]
  kinase still bound, per cent of control: 100%
[6]
  kinase still bound, per cent of control: 85%
[7]
  kinase still bound, per cent of control: 100%
[8]
  kinase still bound, per cent of control: 100%
[9]
  kinase still bound, per cent of control: 100%
[10]
  kinase still bound, per cent of control: 100%
[11]
  kinase still bound, per cent of control: 96%
[12]
  kinase still bound, per cent of control: 100%
[13]
  kinase still bound, per cent of control: 73%
[14]
  kinase still bound, per cent of control: 88%
[15]
  kinase still bound, per cent of control: 98%
[16]
  kinase still bound, per cent of control: 75%
[40]
  kinase still bound, per cent of control: 100%
[17]
  kinase still bound, per cent of control: 93%
[18]
  kinase still bound, per cent of control: 100%
[19]
  kinase still bound, per cent of control: 100%
[20]
  kinase still bound, per cent of control: 100%
[21]
  kinase still bound, per cent of control: 100%
[22]
  kinase still bound, per cent of control: 99%
[41]
  kinase still bound, per cent of control: 100%
[23]
  kinase still bound, per cent of control: 43%
[24]
  kinase still bound, per cent of control: 96%
[25]
  per cent of control: 100%
[26]
  kinase still bound, per cent of control: 98%
[27]
  kinase still bound, per cent of control: 79%
[28]
  kinase still bound, per cent of control: 88%
[29]
  kinase still bound, per cent of control: 100%
[30]
  kinase still bound, per cent of control: 87%
[31]
  kinase still bound, per cent of control: 100%
[32]
  kinase still bound, per cent of control: 100%
[33]
  kinase still bound, per cent of control: 100%
[34]
  kinase still bound, per cent of control: 100%
[35]
  kinase still bound, per cent of control: 89%
[36]
  kinase still bound, per cent of control: 94%
[37]
  kinase still bound, per cent of control: 90%
[38]
  kinase still bound, per cent of control: 94%
[39]
  kinase still bound, per cent of control: 100%
